From PubChem BioAssay AID504822 (The Scripps Research Institute Molecular Screening Center, 2011)
Activity calls are given as the source filed them.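 Rule for the calls: active = EC50 for procaspase-7 activation at or below 10 µM; inactive = EC50 above 10 µM.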

molecular target: Caspase-7 (Homo sapiens) (UniProt P55210); assay: activators of human procaspase-7 D3A mutant, late-stage follow-up, biochemical, absorbance, PC-7 D3A triple mutant, powder samples (AID 504822); conditions: recombinant procaspase-7 D3A, Ac-DEVD-pNA absorbance
Sequence (P55210 whole entry D23A/D198A/D206A): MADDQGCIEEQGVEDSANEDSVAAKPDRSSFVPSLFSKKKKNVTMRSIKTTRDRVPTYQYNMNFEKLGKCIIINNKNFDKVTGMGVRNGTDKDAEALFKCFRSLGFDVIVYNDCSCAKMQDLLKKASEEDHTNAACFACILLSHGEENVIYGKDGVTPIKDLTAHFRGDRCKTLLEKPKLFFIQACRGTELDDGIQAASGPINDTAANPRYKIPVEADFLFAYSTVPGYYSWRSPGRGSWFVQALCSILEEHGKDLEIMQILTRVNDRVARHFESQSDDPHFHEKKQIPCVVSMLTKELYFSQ

| Structure (SMILES) | EC50 |
| --- | --- |
| O=C(C1=NN(c2ccccc2)C2C(=O)N(c3ccccc3)C(=O)C12)c1ccccc1 (stereo not given) | > 85.3 µM (inactive) |
| Cc1[nH]nc2c1C(c1c[nH]c3ccccc13)C(C#N)=C(N)O2 (stereo not given) | 4.49 µM |
| COC(=O)C1=NN(c2ccc(Cl)cc2)C2C(=O)N(c3ccccc3OC)C(=O)C12 (stereo not given) | > 85.3 µM (inactive) |

The remaining lines, values ahead:

| EC50 | Structure (SMILES) |
| --- | --- |
| > 85.3 µM (inactive) | O=C(Nc1ccc(Cc2ccncc2)cc1)C1CCC(N2C(=O)C3C4C=CC(C5CC45)C3C2=O)CC1 (stereo not given) |
| > 85.3 µM (inactive) | COc1ccccc1N1C(=O)C2C(C(=O)c3ccccc3)=NN(c3ccccc3)C2C1=O (stereo not given) |
